Experimental data: patent US8664179B2, “Identification of novel antagonist toxins of T-type calcium channel for analgesic purposes” (Centre National de la Recherche Scientifique (CNRS), priority 2009, dated 2014)
Ends that are not written are not given here.

Experiments:
human Cav3.2 = target: T1, human Cav3.2 (Homo sapiens, UniProt O95180); experiment: Double microelectrode imposed-voltage recording of CaV3.2 current in Xenopus oocytes; assay type: cell-based; conditions: 5 mM barium, depolarization at -30 mV from -100 mV, after 30 seconds (FIG. 2)
T1 construct: expressed in transfected cells; host or cells: Xenopus laevis oocytes (cDNA injection)
T1 sequence (O95180 whole entry): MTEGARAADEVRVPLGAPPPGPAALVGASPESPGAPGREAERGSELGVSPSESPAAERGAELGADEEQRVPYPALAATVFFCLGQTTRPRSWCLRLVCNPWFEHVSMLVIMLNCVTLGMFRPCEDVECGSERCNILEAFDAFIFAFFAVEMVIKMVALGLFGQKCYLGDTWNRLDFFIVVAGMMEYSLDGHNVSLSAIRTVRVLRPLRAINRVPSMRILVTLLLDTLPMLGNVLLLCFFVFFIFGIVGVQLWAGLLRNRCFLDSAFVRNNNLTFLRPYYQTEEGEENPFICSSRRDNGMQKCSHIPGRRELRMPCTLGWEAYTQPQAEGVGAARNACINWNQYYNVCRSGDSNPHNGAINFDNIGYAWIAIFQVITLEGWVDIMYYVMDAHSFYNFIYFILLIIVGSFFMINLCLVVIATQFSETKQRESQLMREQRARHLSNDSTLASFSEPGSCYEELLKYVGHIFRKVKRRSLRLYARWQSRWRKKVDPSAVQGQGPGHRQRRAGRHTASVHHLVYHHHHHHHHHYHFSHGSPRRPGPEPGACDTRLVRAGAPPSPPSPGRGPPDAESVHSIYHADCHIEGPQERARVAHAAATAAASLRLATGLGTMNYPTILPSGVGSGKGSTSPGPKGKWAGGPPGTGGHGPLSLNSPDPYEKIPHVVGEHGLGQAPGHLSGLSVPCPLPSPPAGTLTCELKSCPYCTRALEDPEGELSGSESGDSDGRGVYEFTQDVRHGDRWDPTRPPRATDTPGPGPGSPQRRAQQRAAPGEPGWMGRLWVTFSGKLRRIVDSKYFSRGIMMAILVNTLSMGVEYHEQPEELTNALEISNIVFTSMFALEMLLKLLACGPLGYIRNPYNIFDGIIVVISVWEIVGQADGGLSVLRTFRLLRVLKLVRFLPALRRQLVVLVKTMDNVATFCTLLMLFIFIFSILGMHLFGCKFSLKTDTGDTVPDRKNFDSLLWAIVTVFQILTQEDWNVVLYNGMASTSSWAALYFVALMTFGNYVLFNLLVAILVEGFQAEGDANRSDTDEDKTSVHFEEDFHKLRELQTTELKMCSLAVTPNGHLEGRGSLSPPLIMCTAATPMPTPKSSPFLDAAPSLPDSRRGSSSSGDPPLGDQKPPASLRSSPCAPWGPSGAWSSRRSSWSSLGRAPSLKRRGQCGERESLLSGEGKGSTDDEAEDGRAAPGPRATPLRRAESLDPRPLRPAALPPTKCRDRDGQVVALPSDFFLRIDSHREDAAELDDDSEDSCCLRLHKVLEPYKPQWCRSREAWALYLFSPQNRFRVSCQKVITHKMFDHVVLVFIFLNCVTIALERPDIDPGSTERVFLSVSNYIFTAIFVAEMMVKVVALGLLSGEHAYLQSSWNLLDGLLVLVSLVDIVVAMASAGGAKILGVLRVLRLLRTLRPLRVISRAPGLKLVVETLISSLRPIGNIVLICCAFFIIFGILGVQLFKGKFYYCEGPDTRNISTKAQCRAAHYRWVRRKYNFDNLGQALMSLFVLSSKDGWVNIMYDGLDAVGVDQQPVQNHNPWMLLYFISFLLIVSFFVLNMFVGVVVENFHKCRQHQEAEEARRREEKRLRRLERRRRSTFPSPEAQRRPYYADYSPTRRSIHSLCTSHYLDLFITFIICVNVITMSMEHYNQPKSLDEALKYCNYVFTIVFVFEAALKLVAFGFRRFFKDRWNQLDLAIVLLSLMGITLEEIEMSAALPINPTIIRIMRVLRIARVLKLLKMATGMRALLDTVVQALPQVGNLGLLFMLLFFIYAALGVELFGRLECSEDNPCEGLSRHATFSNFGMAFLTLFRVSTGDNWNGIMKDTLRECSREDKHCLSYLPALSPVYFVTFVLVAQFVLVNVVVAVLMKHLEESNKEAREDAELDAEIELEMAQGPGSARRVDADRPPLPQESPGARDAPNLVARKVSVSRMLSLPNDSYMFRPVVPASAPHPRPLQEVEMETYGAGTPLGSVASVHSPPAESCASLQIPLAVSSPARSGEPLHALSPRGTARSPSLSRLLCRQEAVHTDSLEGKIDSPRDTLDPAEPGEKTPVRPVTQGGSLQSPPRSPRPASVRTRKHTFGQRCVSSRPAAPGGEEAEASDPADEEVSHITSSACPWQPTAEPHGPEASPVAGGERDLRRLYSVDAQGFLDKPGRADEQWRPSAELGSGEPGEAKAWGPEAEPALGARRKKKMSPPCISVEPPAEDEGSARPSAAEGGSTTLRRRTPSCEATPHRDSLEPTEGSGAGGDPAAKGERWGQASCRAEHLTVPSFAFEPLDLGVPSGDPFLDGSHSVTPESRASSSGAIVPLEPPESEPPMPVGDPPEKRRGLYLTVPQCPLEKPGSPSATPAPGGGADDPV
Description: The current is recorded in a solution containing 5 mM barium as charge carrier and it is produced by depolarization at −30 mV starting from a rest potential of −100 mV.
The cDNA coding for human Cav3.2 is injected into oocytes of Xenopus (Xenopus laevis) as described in Altier, C., Dubel, S. J., Barrére, C., Jarvis, S. E., Stotz, S. C., Spaetgens, R. L., Scott, J. D., Cornet, V., De Waard, M., Zamponi, G. W., Nargeot, J. and Bourinet, E. (2002) “Trafficking of L-type calcium channels mediated by postsynaptic scaffolding protein AKAP79.” J. Biol. Chem., 277, 33598-33603 (Ref 5) and in Dubel, S. J., Altier, C., Chaumont, S., Lory, P., Bourinet, E. and Nargeot, J. (2004) “Plasma Membrane Expression of T-type Calcium Channel {alpha}1 Subunits Is Modulated by High Voltage-activated Auxiliary Subunits.” J Biol Chem, 279, 29263-29269 (Ref 6). The currents are recorded by the technique of imposed voltage by double microelectrode using a [sequence]500 amplifier (registered trademark) (MOLECULAR DEVICES (registered trademark)) controlled by the PCLAMP9 software (registered trademark). […] The fractions (10 μl) are applied manually, directly on the oocyte recorded by means of a pipette.

[1] = target: T2, human Cav3.2 calcium channel (Homo sapiens, UniProt O95180); experiment: Whole-cell patch clamp on HEK293 cells stably expressing the human Cav3.2 calcium channel; assay type: cell-based; conditions: CaV3.2 current, HEK293, FIG. 8
T2 construct: expressed in transfected cells
T2 sequence (O95180 whole entry): as above
Description: Starting from this stock concentration, the peptides were diluted in a solution corresponding to the extracellular solution used for the patch clamp analysis. This solution has the following composition (in mM): NaCl 135, TEACl 20, HEPES 10, CaCl2 2, MgCl21 (pH 7.3 with TEAOH).
HEK293 cells (ATCC) stably expressing the complementary DNA sequence of the human Cav3.2 calcium channel were used. At each passage of the cell line, cells were seeded at low density on culture dishes for “patch clamp” analysis (molecular electrophysiology).
The electrophysiological recordings were made by the “patch clamp” technique in the “whole cell” configuration using an Axopatch200B amplifier controlled by a Digidata interface and the pClamp10 software (Molecular Devices). The extracellular recording solution containing 2 mM calcium is described above.
The intrapipette solution used for the recordings has the following composition: CsCl 130 mM, HEPES 10 mM, EGTA 10 mM, CaCl2 2 mM, MgCl2 1 mM, MgATP 4 mM, TrisGTP 0.3 mM (pH 7.3 with NaOH). The results are analyzed using [sequence] (registered trademark), EXCEL (registered trademark) and [sequence] (registered trademark) software. […]
These “dose-effect” curves were analyzed with [sequence] […]

C57BL/6J mice [2] = experiment: Tail immersion test in a water bath at 46° C. (thermal pain); assay type: in vivo; conditions: intrathecal injection, 10 and 100 nM, versus control group receiving physiological solution
Description: Mice are used for observing the analgesic effect of the peptide of the invention with respect to pain induced by thermal stimuli.
(§1) The mice are C57BL/6J wild-type mice and C57BL/6J CaV3.2−/− mice. The total number of mice is 10 wild-type and 10 CaV3.2−/−.
Two groups of mice (C57BL/6J) are used, one group injected intrathecally with a physiological solution comprising the peptide of the invention at a concentration of 10 and 100 nM and a second group (control group) receiving only intrathecal injection of physiological solution alone. The mice are then submitted to the test of immersion of the tail in a water bath at 46° C. The purpose of this experiment is to determine the time after which the mice react to the painful heat, thus showing the threshold of appearance of the painful signal connected with perception of heat. The same experiment is conducted in parallel on two other groups of C57BL/6J mice lacking the gene coding for the T-type calcium channel encoded by the CaV3.2 subunit. The purpose of this experiment is to show the selectivity of the peptide of the invention.

C57BL/6J mice [3] = experiment: Mechanical stimulation test with von Frey bristles; assay type: in vivo; conditions: intrathecal injection, 10 and 100 nM, versus control group receiving physiological solution
Description: Mice are used for observing the analgesic effect of the peptide of the invention with respect to mechanical stimuli.
as §1
Two groups of mice (C57BL/6J) are used, one group injected intrathecally with a physiological solution comprising the peptide of the invention at a concentration of 10 and 100 nM and a second group (control group) only receiving intrathecal injection of the physiological solution alone. The mice are then submitted to the mechanical stimulation test with von Frey bristles. The purpose of this experiment is to determine the threshold of reaction to a mechanical stimulus of increasing intensity applied on the arch of the foot. The animals' reaction threshold is correlated with the appearance of the painful signal connected with the perception of mechanical pressure. The same experiment is conducted in parallel on two other groups of C57BL/6J mice lacking the gene coding for the T-type calcium channel encoded by the CaV3.2 subunit. The purpose of this experiment is to show the selectivity of the peptide of the invention.

Row | Molecule | current of the Cav3.2 channel after application of the toxin (human Cav3.2) | Hill number (slope of dose-effect curve) [1] | time to react to heat (C57BL/6J mice [2]) | threshold of perception of mechanical pressure (C57BL/6J mice [3])
1 | CC[C@H](C)[C@H](NC(=O)[C@H](CCCCN)NC(=O)[C@@H]1CSSC[C@@H]2NC(=O)[C@@H]3CCCN3C(=O)[C@H](CCCNC(=N)N)NC(=O)[C@H](CCC(=O)O)NC(=O)[C@H](CO)NC(=O)[C@H](CC(=O)O)NC(=O)[C@@H]3CSSC[C@H](NC(=O)[C@H](C(C)C)NC(=O)[C@H](CC(C)C)NC(=O)CNC(=O)[C@H](CCC(=O)O)NC(=O)[C@H](CSSC[C@H](NC(=O)[C@@H](N)Cc4ccc(O)cc4)C(=O)N[C@@H](CCC(N)=O)C(=O)N[C@@H](CCCCN)C(=O)N[C@@H](Cc4ccccc4)C(=O)N[C@@H](CC(C)C)C(=O)N[C@@H](Cc4c[nH]c5ccccc45)C(=O)N[C@@H]([C@@H](C)O)C(=O)N3)NC2=O)C(=O)N[C@@H](CCCNC(=N)N)C(=O)N[C@@H](CC(C)C)C(=O)N[C@@H](Cc2c[nH]c3ccccc23)C(=O)N1)C(=O)N[C@@H](CC(N)=O)C(=O)O [natural toxin] | strongly inhibited | 0.87 |  | 
2 | CC[C@H](C)[C@H](NC(=O)[C@H](CCCCN)NC(=O)[C@@H]1CSSC[C@@H]2NC(=O)[C@@H]3CCCN3C(=O)[C@H](CCCNC(=N)N)NC(=O)[C@H](CCC(=O)O)NC(=O)[C@H](CO)NC(=O)[C@H](CC(=O)O)NC(=O)[C@@H]3CSSC[C@H](NC(=O)[C@H](C(C)C)NC(=O)[C@H](CC(C)C)NC(=O)CNC(=O)[C@H](CCC(=O)O)NC(=O)[C@H](CSSC[C@H](NC(=O)[C@@H](N)Cc4ccc(O)cc4)C(=O)N[C@@H](CCC(N)=O)C(=O)N[C@@H](CCCCN)C(=O)N[C@@H](Cc4ccccc4)C(=O)N[C@@H](CC(C)C)C(=O)N[C@@H](Cc4c[nH]c5ccccc45)C(=O)N[C@@H]([C@@H](C)O)C(=O)N3)NC2=O)C(=O)N[C@@H](CCCNC(=N)N)C(=O)N[C@@H](CC(C)C)C(=O)N[C@@H](Cc2c[nH]c3ccccc23)C(=O)N1)C(=O)N[C@@H](CC(N)=O)C(=O)O [synthetic peptide] |  | 0.89 |  | 
3 | YCQKFLWTCDSERPCCEGLVCRLWCKIN (disulfide (positions not given here); not fully specified (bridges); also: 3 disulfide bridges between the 6 cysteines, pairing not given here) [peptide of sequence SEQ ID NO 1] |  |  | significantly longer | significantly higher
